Entries after “also recorded” stand apart in the source; their conditions may differ.
How the values were obtained:
Type in all cases: cell-based, Medicago truncatula
IFS genes = assay: Microarray analysis of elicitor-treated cell suspension cultures: IFS transcripts; settings: MeJA: 24 h after treatment
Description: (§1) The Affymetrix DNA chip contained 61,200 probe sets: 32,167 M. truncatula EST/mRNA-based and chloroplast gene-based probe sets (TIGR Gene Index version 8, January, 2005, 36,878 unique sequences); 18,733 M. truncatula IMGAG (International Medicago Genome Annotation Group) and phase 2/3 BAC prediction-based probe sets; 1,896 M. sativa EST/mRNA based probe sets; 8,305 Sinorhizobium meliloti gene prediction-based probe sets. For microarray experiments, total RNA was extracted from cell suspension cultures (Suzuki et al., 2005) using TRI Reagent (Molecular Research Center, Inc., Cincinnati, Ohio) and purified using the RNeasy® MinElute Cleanup Kit (Qiagen, Valencia, Calif.), according to the manufacturer's instructions. For all samples, 10 μg of total RNA was used for labeling reactions. Labeling, hybridization and data processing were performed according to the manufacturer's instruction (Affymetrix, Santa Clara, Calif.). For both YE and MeJA treatments, transcript profiles were examined at early (2 h) and late (24 h) time post-elicitation. For each sample point, two biological replicates were included, and the average signal intensities were used to calculate ratio of treatment to its corresponding control.
MtIOMTs 6-8 are annotated as encoding 2,7,4′-trihydroxyisoflavanone 4′-OMTs. […]

MtIOMT2 = assay: RT-PCR analysis of elicitor-treated cell cultures: MtIOMT2
Method: (§2) Infection of M. truncatula with Phoma medicaginis was performed as described (Deavours and Dixon, 2005). RNA was extracted from plant tissues using TRI Reagent (Molecular Research Center, Inc., Cincinnati, Ohio) according to the manufacturer's instructions. For RT-PCR, 2 μg of total RNA was transcribed into cDNA using Ready-To-Go RT-PCR beads (Amersham, Piscataway, N.J.) and oligo-dT primer. Two μl of cDNA was used in each PCR reaction (50 μl total) with Ex-Taq PCR reagents (Takara Bio Inc., Shiga, Japan) and the primers used are listed in Table 1 (SEQ ID NOs:16-29). PCR conditions were 94° C., 5 min; 25-32 cycles of 94° C. for 1 min, 55° C. for 1 min, 72° C. for 1 min; followed by 72° C. for 10 min. PCR products were resolved on a 1% (w/v) TAE-agarose gel and visualized with ethidium bromide.
(§3) Differential induction of MtIOMTs in response to elicitation was also observed in M. truncatula cell cultures treated with yeast elicitor (YE) or methyl jasmonate (MeJA), which induce different global patterns of genetic re-programming (Suzuki et al., 2005). Changes in IOMT transcripts in elicited cells were inferred from microarray data generated utilizing Affymetrix Medicago genome arrays with 61K probe sets (www.affymetrix.com). […]

MtIOMT6 [1] = assay: RT-PCR analysis of elicitor-treated cell cultures: MtIOMT6
Method: as §2, §3

MtIOMT7 = assay: Microarray analysis of elicitor-treated cell suspension cultures: MtIOMT7 transcripts; settings: 2 and 24 hours post-elicitation
Description: as §1, with “control. […]” for “control.”

MtIOMT6 [2] = assay: Microarray analysis of elicitor-treated cell suspension cultures: MtIOMT6 transcripts; settings: 2 and 24 hours post-elicitation
Description: as §1, with “control. […]” for “control.”

MtIOMT4 = assay: Microarray analysis of elicitor-treated cell suspension cultures: MtIOMT4 transcripts; settings: 2 and 24 hours post-elicitation
Description: as §1, with “control. […]” for “control.”

MtIOMT1 = assay: Expression in elicitor-treated cell cultures: MtIOMT1 transcripts
Description: as §1, with “control. […]” for “control.”

Compound: CC/C=C\CC1C(=O)CCC1CC(=O)OC (stereo not shown) [MeJA, methyl jasmonate]
- Change of IFS gene transcripts, treatment vs control (IFS genes): down-regulated; also recorded: consistently reduced
- Induction of MtIOMT2 transcripts (MtIOMT2): strong induction
- Induction of MtIOMT6 transcripts (MtIOMT6 [1]): strong induction
- Induction of MtIOMT7 transcripts, treatment vs control (MtIOMT7): massively induced; also recorded: very strongly induced
- Induction of MtIOMT6 transcripts, treatment vs control (MtIOMT6 [2]): massively induced; also recorded: very strongly induced
- Induction of MtIOMT4 transcripts, treatment vs control (MtIOMT4): down-regulated
- Induction of MtIOMT1 transcripts (MtIOMT1): induced
